No end group written: not given here.
Columns and labels:
[1] = test system: Ova-peptide pulsed EL4 cells; assay: Cytotoxicity of spleen cells from vaccinated mice, 18-hour chromium release assay; assay type: in vivo, C57BL/6 mice; conditions: mice immunized with the single component alone
Experimental: The purified hsp70 was combined with the synthesized peptides and used for immunization. To form the hsp70/peptide mixtures, approximately 15 μg (21.5 μM) hsp70 was combined with 5 μg of ova-peptide (0.5 mM, SEQ. ID. NO: 7) or 10 μg (0.5 mM) hybrid peptide (SEQ. ID NOS: 8 and 9) were mixed on ice to a final volume of 10 μl in Buffer B (final concentration: 20 mM Hepes pH 7.0, 150 mM KCl, 10 mM (NH4)2SO4, 2 mM MgCl2 and 2 mM MgADP, pH 7.0). The mixtures were incubated for 30 minutes at 37° C. and then used for in vivo immunizations.
C57BL/6 mice were immunized intradermally once a week for a total of two weeks with 10 μL of one of the mixtures described above or with a mixture of TITERMAX® (Vaxcell, Norcross, Ga.) and Ova-peptide (5 μg). One week after the second immunization, spleen cells were removed and mononuclear cells (6-8×10^7) were cultured with 3×10^6 γ-irradiated (3000 rad) stimulator cells. The stimulator cells were obtained from naive mice that had been sensitized in vitro with Ova-peptide (10 mg/ml) for 30 minutes at room temperature, washed and irradiated at 3000 rads.
Cytotoxicity of spleen cells from vaccinated mice were assayed on Ova-peptide pulsed EL4 cells in an 18-hour chromium release assay. CTL were generated by culturing in vivo immunized spleen cells for 5 days at a concentration of 10^6 cells/mL in RPMI medium, 10% FCS, penicillin, streptomycin and 2 mM L-glutamine, together with 3×10^6 γ-irradiated (3,000 rad) stimulator cells/mL. Target cells were prepared by culturing cells for 1 hour in the presence of 250 μCi of ^51Cr sodium chromate (DuPont, Boston, Mass.) in Tris-phosphate buffer, pH 7.4 at 37° C. for 60 minutes. After washing, 10^4 ^51Cr-labeled target cells were mixed with effector lymphocytes to yield several different effector/target (E/T) ratios and were incubated for 18 hours. Supernatants were harvested and the radio-activity was measured in a gamma counter. Percent specific lysis was calculated as: 100×[(cpm release by CTL-cpm spontaneous release)/(cpm maximal release—cpm spontaneous release)]. Maximal response was determined by addition of 1% Triton X-100. Spontaneous release of all target in the absence of effector cells was less than 25% of the maximal release.

[2] = target: T1, BiP (Mus musculus, UniProt P20029); assay: Binding of 14C-labeled OVA-BiP to heat shock protein, co-elution on Sephacryl S-300 column; conditions: 100 μM 14C-labeled peptide, 50 μg BiP, 37° C., 30 minutes
T1 construct: mature wild-type or KDEL-deleted BiP can be harvested from the periplasm; extra Met (initiator ATG of the 5' primer, ahead of the mature N-terminus) (N); made in house; host or cells: E. coli BL21, pET22, periplasmic extract
Experimental: ^14C-labeled OVA-BiP was prepared by alkylation of OVA-BiP with ^14C-formaldehyde. 0.9 mg of OVA-BiP in 300 uL 10% DMSO/water was added to 175 μl of ^14C-formaldehyde (62 μCi) and immediately 50 uL of freshly made up 200 mM NaCNBH3 was added. The reaction was mixed and left at 25° C. for 3 hours. The labeled peptide was repurified by reverse phase HPLC on a C-4 column in a 15 minute 0-100% acetonitrile (0.1% TFA) gradient.
The ability of the OVA-BiP peptide to bind to heat shock proteins was measured by incubating 100 μM (5μg) ^14C-labeled OVA-BiP with 50 μg of BiP (prepared as in example 11), hsp70 (as prepared in Example 2) or grp96 (prepared as in Example 10) in a final volume of 20 μl of buffer (50 mM Mops, pH 7.2., […] NaCl, 5 mM MgAcetate) at 37° C. for 30 minutes. The samples were then spun down (5 minutes in a microfuge) and loaded onto a 17 cm long Sephacryl S-300 column equilibrated in binding buffer (50 mM Mops, pH 7.2., 200 mM NaCl, 5 mM MgAcetate) and fractions were collected dropwise. 50 μl of each ˜225 μl fraction was counted in scintillation liquid. 10 μl of each fraction was also run on a 12% SDS-PAGE reducing gel. […] The result for gp96 is unclear because the peak at fraction 11 (which may represent an aggregation phenomenon) and the gp96 peak (fraction 14) elute close together on the column used.

[3] = target: T2, hsp70 (Mus musculus, UniProt P17879); assay: as above; conditions: 100 μM 14C-labeled peptide, 50 μg hsp70, 37° C., 30 minutes
T2 construct: made in house; host or cells: E. coli DH5α, plasmid pMS236
Experimental: Purified mouse cytosolic hsp70 was prepared from E. coli DH5α cells transformed with pMS236 encoding mouse cytosolic hsp70. The cells were grown to an optical density (600 nm) of 0.6 at 37° C., and expression was induced by the addition of IPTG to a final concentration of 1 mM. Cells were harvested by centrifugation 2 to 5 hours post induction and the pellets were resuspended to 20 mL with Buffer A (20 mM Hepes pH 7.0, 25 mM KCl, 1 mM DTT, 10 mM (NH4)2SO4, 1 mM PMSF). The cells were lysed by passing three times through a French press. The lysate was cleared by a low speed spin, followed by centrifugation at 100,000×G for 30 minutes. The cleared lysate was applied to a Pharmacia XK26 column packed with 100 mL DEAE Sephacel and equilibrated with Buffer A at a flow rate of 0.6 cm/min. The column was washed to stable baseline with Buffer A and eluted with Buffer A adjusted to 175 mM KCl. […]
The ability of the OVA-BiP peptide to bind to heat shock proteins was measured by incubating 100 μM (5μg) ^14C-labeled OVA-BiP with 50 μg of BiP (prepared as in example 11), hsp70 (as prepared in Example 2) or grp96 (prepared as in Example 10) in a final volume of 20 μl of buffer (50 mM Mops, pH 7.2., […] NaCl, 5 mM MgAcetate) at 37° C. for 30 minutes. […] 50 μl of each ˜225 μl fraction was counted in scintillation liquid. […]

[4] = target: T1, BiP; assay: ATP-mediated peptide release, elution profile of 125I-OVA-BiP and BiP; assay type: binding; conditions: presence and absence of 2 mM ATP
Experimental: To prepare ^125I-OVA-BiP, 250 μCi of monoiodinated Bolton-Hunter reagent was transferred into a stoppered vial and the solvent in which it was dissolved was evaporated with a gentle stream of argon gas. To the dried reagent 222 μL of 4.5 mg/mL OVA-BiP in 100 mM NaBO3, pH 8, […], 10% DMSO was added. The reaction was mixed and incubated at 25° C. for 45 minutes and continued at 4° C. for a further hour. The labeled peptide was repurified by reverse phase HPLC on a C-4 column in a 20 minute, 0-100% acetonitrile (0.1% TFA) gradient. The iodinated OVA-BiP was combined with BiP in substantially the same manner as the heat shock proteins in Example 7, except that since the iodinated peptide was at a very low concentration, 1 μl (approx 32 ng) of labeled peptide was mixed with 5 μg of unlabeled peptide and this was incubated with 50 μg of BiP in 20 μL of binding buffer. To observe ATP-mediated peptide release, ATP was added to a final concentration of 2 mM after the 30 minute incubation and incubated for a further 5 minutes prior to spinning. These samples were run on the same column as above, but equilibrated in binding buffer supplemented with 2 mM ATP. […] This is consistent with the observation that ATP mediates release of bound proteins or polypeptides from heat shock proteins.

T1 sequence (P20029 20-655): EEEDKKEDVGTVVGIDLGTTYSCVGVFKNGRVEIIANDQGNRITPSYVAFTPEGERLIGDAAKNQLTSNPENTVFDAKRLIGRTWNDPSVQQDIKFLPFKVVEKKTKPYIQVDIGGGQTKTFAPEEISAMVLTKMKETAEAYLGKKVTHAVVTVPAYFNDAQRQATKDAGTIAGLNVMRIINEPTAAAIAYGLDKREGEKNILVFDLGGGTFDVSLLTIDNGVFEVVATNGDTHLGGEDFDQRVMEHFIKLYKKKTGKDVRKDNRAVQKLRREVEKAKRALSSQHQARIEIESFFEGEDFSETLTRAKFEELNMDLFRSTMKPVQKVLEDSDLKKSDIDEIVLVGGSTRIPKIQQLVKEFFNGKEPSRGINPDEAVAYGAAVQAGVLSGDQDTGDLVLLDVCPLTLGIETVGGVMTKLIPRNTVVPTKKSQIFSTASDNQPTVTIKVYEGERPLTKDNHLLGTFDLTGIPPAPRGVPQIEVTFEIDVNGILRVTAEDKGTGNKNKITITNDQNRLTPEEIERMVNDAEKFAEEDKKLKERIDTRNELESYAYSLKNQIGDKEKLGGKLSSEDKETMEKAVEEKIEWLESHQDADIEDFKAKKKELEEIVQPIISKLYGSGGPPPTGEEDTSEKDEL
T2 sequence (P17879 whole entry): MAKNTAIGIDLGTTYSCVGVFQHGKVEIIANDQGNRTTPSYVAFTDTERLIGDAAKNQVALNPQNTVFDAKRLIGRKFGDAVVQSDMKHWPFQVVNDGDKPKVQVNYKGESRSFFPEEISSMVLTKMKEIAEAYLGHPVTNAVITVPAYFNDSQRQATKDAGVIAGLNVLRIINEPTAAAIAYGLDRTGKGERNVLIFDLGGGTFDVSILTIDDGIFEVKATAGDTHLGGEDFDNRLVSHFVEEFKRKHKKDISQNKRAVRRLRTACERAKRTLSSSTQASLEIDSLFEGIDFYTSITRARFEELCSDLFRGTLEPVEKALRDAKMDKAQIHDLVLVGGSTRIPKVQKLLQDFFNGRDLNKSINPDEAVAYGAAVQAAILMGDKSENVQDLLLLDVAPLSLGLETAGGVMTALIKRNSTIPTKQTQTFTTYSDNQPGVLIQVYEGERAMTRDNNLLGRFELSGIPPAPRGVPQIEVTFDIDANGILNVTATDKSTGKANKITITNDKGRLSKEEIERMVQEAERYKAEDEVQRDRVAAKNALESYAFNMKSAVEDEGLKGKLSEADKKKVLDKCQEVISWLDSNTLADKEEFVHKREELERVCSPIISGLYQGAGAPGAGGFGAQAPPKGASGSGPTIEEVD

| Substance | results on cells pulsed with Ova-peptide (FIG. 5A) versus cells not pulsed (FIG. 5B) [1] | radio-activity co-eluting with heat shock protein (FIG. 6) [2] | radio-activity co-eluting with heat shock protein (FIG. 6) [3] | release of hybrid peptide from BiP on addition of ATP (FIG. 7) [4] |
| --- | --- | --- | --- | --- |
| HWDFAWPWGSGSIINFEKL [BiP-OVA] | the same |  |  |  |
| SIINFEKLGSGHWDFAWPW [OVA-BiP] | the same | significant amount of radio-activity elutes with BiP | significant amount of radio-activity elutes with BiP and hsp70 |  |
| Ser-Ile-Ile-Asn-Phe-Glu-Lys-Leu (SIINFEKL) [Ova-peptide, OVA antigenic domain peptide, reference compound] | the same |  |  |  |
| ^125I-OVA-BiP: OVA-BiP labeled with monoiodinated Bolton-Hunter reagent (SIINFEKLGSGHWDFAWPW; also: labelled with monoiodinated (125I) Bolton-Hunter reagent, place not given here) |  |  |  | addition of ATP causes the release |
| hsp70: purified recombinant mouse cytosolic hsp70 from E. coli DH5α transformed with pMS236 | the same |  |  |  |

— patent US6673348B2, “Heat shock protein-based vaccines and immunotherapies” (priority 1995, dated 2004)
